In patent publication US10882837B2, “Amide compounds and use thereof” (ALPHALA CO., LTD., priority 2017, dated 2021):

Tests used:
[1] = target: T1, glucagon receptor (GCGR) (Homo sapiens, UniProt P47871); experiment: Glucagon cAMP inhibition assay (Cisbio cAMP Dynamic 2 HTRF); format: cell-based; details: GCGR overexpressed CHO-K1 cells or human primary hepatocytes (not specified); glucagon at EC50
T1 construct: expressed in transfected cells; host or cells: CHO-K1
Method in brief: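 GCGR-overexpressing CHO-K1 cells or human primary hepatocytes in HBSS with 0.1% BSA and 800 nM IBMX, pre-incubated 30 min with compound (1% DMSO final), then stimulated 30 min at room temperature with glucagon at its EC50. cAMP measured by HTRF after 60 min lysis; IC50 from non-linear regression.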

[2] = target: GCGR (Homo sapiens, UniProt P47871); experiment: I125-glucagon binding assay (competition, GCGR membrane fractions); parameters: expressed in transfected cells; host or cells: CHO-K1; details: for IC50: competition with I125-glucagon 0.0625 nM, membrane fractions from GCGR overexpressed CHO-K1 cells
GCGR, sequence (P47871 26-477, species assumed): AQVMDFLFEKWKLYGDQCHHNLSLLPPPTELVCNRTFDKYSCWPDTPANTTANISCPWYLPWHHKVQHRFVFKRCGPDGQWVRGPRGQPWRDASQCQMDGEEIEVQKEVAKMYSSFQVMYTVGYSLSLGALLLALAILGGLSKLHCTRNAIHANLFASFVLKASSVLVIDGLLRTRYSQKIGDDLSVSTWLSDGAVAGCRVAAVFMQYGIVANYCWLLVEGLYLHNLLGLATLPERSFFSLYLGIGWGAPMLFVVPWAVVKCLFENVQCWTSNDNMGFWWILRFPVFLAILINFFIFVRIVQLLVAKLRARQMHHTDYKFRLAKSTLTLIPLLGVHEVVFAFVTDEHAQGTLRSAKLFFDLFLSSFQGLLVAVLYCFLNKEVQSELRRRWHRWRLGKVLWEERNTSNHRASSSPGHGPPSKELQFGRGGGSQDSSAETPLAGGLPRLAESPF
Method in brief: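 Membranes from CHO-K1 cells overexpressing GCGR (7.5 µg/well) were preincubated 5 min with serially diluted compound in 50 mM Tris pH 7.4, 0.5% BSA. I125-glucagon was then added at 0.0625 nM final and incubated 30 min at 25 °C. After filtration, bound radioactivity was counted and IC50 derived by non-linear regression.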

T1 sequence (P47871 26-477, species assumed): as above

SMILES	IC50 [1] [nM]	IC50 [2] [nM]	inhibition at 30 µM ([2]; compound at 30 μM, read-out: percentage of inhibition (number in parenthesis in IC50 binding column)) [%]
O=C(O)CCNC(=O)c1ccc(N[C@@H](c2ccc(-c3nc4ccccc4o3)cc2)C2CCCC2)cc1 [Compound 4-12, (R)-3-(4-(((4-(benzo[d]oxazol-2-yl)phenyl)(cyclopentyl)methyl)amino)benzamido)propanoic acid]	754	23.8	–
CCOC(=O)CCNC(=O)c1ccc(N[C@H](CC(C)C)c2ccc(-c3nc4ccccc4o3)cc2)cc1 [Compound 4-13, ethyl (R)-3-(4-((1-(4-(benzo[d]oxazol-2-yl)phenyl)-3-methylbutyl)amino)benzamido)propanoate]	361	31600	–
CC(C)C[C@@H](Nc1ccc(C(=O)NCCC(=O)O)cc1)c1ccc(-c2nc3ccccc3o2)cc1 [Compound 4-14, (R)-3-(4-((1-(4-(benzo[d]oxazol-2-yl)phenyl)-3-methylbutyl)amino)benzamido)propanoic acid]	917	112	–
CCCC[C@H](Nc1ccc(C(=O)NCCC(=O)O)cc1)c1ccc(-c2nc3ccccc3o2)cc1 [Compound 4-16, (S)-3-(4-((1-(4-(benzo[d]oxazol-2-yl)phenyl)pentyl)amino)benzamido)propanoic acid]	785	36	–
CC(C)C[C@H](Nc1ccc(C(=O)NCCC(=O)O)cc1)c1ccc(-c2nc3ccccc3o2)cc1 [Compound 4-18]	1750	83	–
CCC(C)[C@H](Nc1ccc(C(=O)NCCC(=O)O)cc1)c1ccc(-c2nc3ccccc3o2)cc1 (stereo partly drawn) [Compound 4-20, 3-(4-(((1S)-1-(4-(benzo[d]oxazol-2-yl)phenyl)-2-methylbutyl)amino)benzamido)propanoic acid]	984	17	–
CCOC(=O)CCNC(=O)c1ccc(N[C@@H](c2ccc(-c3nc4ccccc4o3)cc2)C(C)CC)cc1 (stereo partly drawn) [Compound 4-21, ethyl 3-(4-(((1R)-1-(4-(benzo[d]oxazol-2-yl)phenyl)-2-methylbutyl)amino)benzamido)propanoate]	242	923	–
CCC(C)[C@@H](Nc1ccc(C(=O)NCCC(=O)O)cc1)c1ccc(-c2nc3ccccc3o2)cc1 (stereo partly drawn) [Compound 4-22, 3-(4-(((1R)-1-(4-(benzo[d]oxazol-2-yl)phenyl)-2-methylbutyl)amino)benzamido)propanoic acid]	899	60	–
O=C(O)CCNC(=O)c1ccc(N[C@H](c2ccc(-c3nc4ccccc4o3)cc2)C2CCCC2)cc1 [Compound 4-24, (S)-3-(4-(((4-(benzo[d]oxazol-2-yl)phenyl)(cyclopentyl)methyl)amino)benzamido)propanoic acid]	862	95	–
CC(C)[C@H](Nc1ccc(C(=O)NCCC(=O)O)cc1)c1ccc(-c2nc3ccccc3s2)cc1 [Compound 4-26, (S)-3-(4-((1-(4-(benzo[d]thiazol-2-yl)phenyl)-2-methylpropyl)amino)benzamido)propanoic acid]	1020	42.3	–
CC(C)C[C@H](Nc1ccc(C(=O)NCCC(=O)O)cc1)c1ccc(-c2nc(-c3ccccc3)no2)cc1 [Compound 5-2, (S)-3-(4-((3-methyl-1-(4-(3-phenyl-1,2,4-oxadiazol-5-yl)phenyl)butyl)amino)benzamido)propanoic acid]	211	20	–
CC(C)[C@H](Nc1ccc(C(=O)NCCC(=O)O)cc1)c1ccc(-c2nc(-c3ccccc3)no2)cc1 [Compound 5-4, (S)-3-(4-((2-methyl-1-(4-(3-phenyl-1,2,4-oxadiazol-5-yl)phenyl)propyl)amino)benzamido)propanoic acid]	292	34.1	–
CCC(C)[C@H](Nc1ccc(C(=O)NCCC(=O)O)cc1)c1ccc(-c2nc(-c3ccccc3)no2)cc1 (stereo partly drawn) [Compound 5-6, 3-(4-(((1S)-2-methyl-1-(4-(3-phenyl-1,2,4-oxadiazol-5-yl)phenyl)butyl)amino)benzamido)propanoic acid]	239	13.1	–
CCCC[C@H](Nc1ccc(C(=O)NCCC(=O)O)cc1)c1ccc(-c2nc(-c3ccccc3)no2)cc1 [Compound 5-8, (S)-3-(4-((1-(4-(3-phenyl-1,2,4-oxadiazol-5-yl)phenyl)pentyl)amino)benzamido)propanoic acid]	202	14	–
CC(C)C(Oc1ccc(C(=O)NCCC(=O)O)cc1)c1ccc(-c2nc3ccccc3s2)cc1 (stereo not drawn) [Compound 6-2, 3-(4-(1-(4-(Benzo[d]thiazol-2-yl)phenyl)-2-methylpropoxy)benzamido)propanoic acid]	133	1110	–
CCOC(=O)CCNC(=O)c1ccc(C(Oc2ccc(-c3nc4ccccc4o3)cc2)C(C)C)cc1 (stereo not drawn) [Compound 7-1, Ethyl 3-(4-(1-(4-(benzo[d]oxazol-2-yl)phenoxy)-2-methylpropyl)benzamido)propanoate]	487	> 30000	–
CC(C)C(Oc1ccc(-c2nc3ccccc3o2)cc1)c1ccc(C(=O)NCCC(=O)O)cc1 (stereo not drawn) [Compound 7-2, 3-(4-(1-(4-(Benzo[d]oxazol-2-yl)phenoxy)-2-methylpropyl)benzamido)propanoic acid]	292	177	–
CCOC(=O)CCNC(=O)c1ccc(C(Oc2ccc(-c3nc4ccccc4s3)cc2)C(C)C)cc1 (stereo not drawn) [Compound 7-3, Ethyl 3-(4-(1-(4-(benzo[d]thiazol-2-yl)phenoxy)-2-methylpropyl)benzamido)propanoate]	292	2110	–
CC(C)C(Oc1ccc(-c2nc3ccccc3s2)cc1)c1ccc(C(=O)NCCC(=O)O)cc1 (stereo not drawn) [Compound 7-4, 3-(4-(1-(4-(Benzo[d]thiazol-2-yl)phenoxy)-2-methylpropyl)benzamido)propanoic acid]	209	208	–

These reach a lower IC50 [1]. Values come first.

IC50 [1] [nM]	IC50 [2] [nM]	inhibition at 30 µM ([2]; compound at 30 μM, read-out: percentage of inhibition (number in parenthesis in IC50 binding column)) [%]	SMILES
96	745	–	CCOC(=O)CCNC(=O)c1ccc(N[C@@H](CC(C)C)c2ccc(-c3nc4ccccc4o3)cc2)cc1 [Compound 4-17, ethyl (S)-3-(4-((1-(4-(benzo[d]oxazol-2-yl)phenyl)-3-methylbutyl)amino)benzamido)propanoate]
85.6	> 30000	–	CCOC(=O)CCNC(=O)c1ccc(OC(c2ccc(-c3nc4ccccc4s3)cc2)C(C)C)cc1 (stereo not drawn) [Compound 6-1, Ethyl 3-(4-(1-(4-(benzo[d]thiazol-2-yl)phenyl)-2-methylpropoxy)benzamido)propanoate]
71.4	1740	–	CCOC(=O)CCNC(=O)c1ccc(N[C@H](c2ccc(-c3nc(-c4ccccc4)no3)cc2)C(C)C)cc1 [Compound 5-3, ethyl (S)-3-(4-((2-methyl-1-(4-(3-phenyl-1,2,4-oxadiazol-5-yl)phenyl)propyl)amino)benzamido)propanoate]
65	308	–	CCOC(=O)CCNC(=O)c1ccc(N[C@H](c2ccc(-c3nc4ccccc4o3)cc2)C2CCCC2)cc1 [Compound 4-23, ethyl (S)-3-(4-(((4-(benzo[d]oxazol-2-yl)phenyl)(cyclopentyl)methyl)amino)benzamido)propanoate]
59	1020	32	CCCC[C@H](Nc1ccc(C(=O)NCCC(=O)OCC)cc1)c1ccc(-c2nc(-c3ccccc3)no2)cc1 [Compound 5-7, ethyl (S)-3-(4-((1-(4-(3-phenyl-1,2,4-oxadiazol-5-yl)phenyl)pentyl)amino)benzamido)propanoate]
53.4	285	–	CCOC(=O)CCNC(=O)c1ccc(N[C@H](c2ccc(-c3nc4ccccc4o3)cc2)C(C)C)nc1 [Compound 4-29, ethyl (S)-3-(6-((1-(4-(benzo[d]oxazol-2-methylpropyl)amino)nicotinamido propanoate]
52	446	–	CCOC(=O)CCNC(=O)c1ccc(N[C@H](c2ccc(-c3nc4ccccc4o3)cc2)C(C)CC)cc1 (stereo partly drawn) [Compound 4-19, Ethyl 3-(4-(((1S)-1-(4-(benzo[d]oxazol-2-yl)phenyl)-2-methylbutyl)amino)benzamido)propanoate]
52	637	–	CCOC(=O)CCNC(=O)c1ccc(N[C@@H](CC(C)C)c2ccc(-c3nc(-c4ccccc4)no3)cc2)cc1 [Compound 5-1, ethyl (S)-3-(4-((3-methyl-1-(4-(3-phenyl-1,2,4-oxadiazol-5-yl)phenyl)butyl)amino)benzamido)propanoate]
46	876	–	CCOC(=O)CCNC(=O)c1ccc(N[C@H](c2ccc(-c3nc(-c4ccccc4)no3)cc2)C(C)CC)cc1 (stereo partly drawn) [Compound 5-5, ethyl 3-(4-(((1S)-2-methyl-1-(4-(3-phenyl-1,2,4-oxadiazol-5-yl)phenyl)butyl)amino)benzamido)propanoate]
43	350	–	CCCC[C@H](Nc1ccc(C(=O)NCCC(=O)OCC)cc1)c1ccc(-c2nc3ccccc3o2)cc1 [Compound 4-15, ethyl (S)-3-(4-((1-(4-(benzo[d]oxazol-2-yl)phenyl)pentyl)amino)benzamido)propanoate]
42.3	127	–	CCOC(=O)CCNC(=O)c1ccc(N[C@H](c2ccc(-c3nc4ccccc4s3)cc2)C(C)C)nc1 [Compound 4-27, ethyl (S)-3-(6-((1-(4-(benzo[d]thiazol-2-yl)phenyl)-2-methylpropyl)amino)nicotinamido)propanoate]
30.3	188	–	CCOC(=O)CCNC(=O)c1ccc(N[C@H](c2ccc(-c3nc4ccccc4s3)cc2)C(C)C)cc1 [Compound 4-25, ethyl (S)-3-(4-((1-(4-(benzo[d]thiazol-2-yl)phenyl)-2-methylpropyl)amino)benzamido)propanoate]
